Reference: patent publication US20090137577A1, “HETEROCYCLIC COMPOUNDS” (Pfizer Inc., priority 2007, published 2009)

Target: T1, mGluR2 receptor (metabotropic glutamate receptor 2) (Homo sapiens, UniProt Q14416)
T1 construct: expressed in transfected cells
Assay: mGluR2 potentiator screen (FLIPR, EC10-EC20 glutamate challenge);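 further: HEK cells stably expressing human mGluR2 with GL15 G protein, Fluo-4 calcium fluorescence read on FLIPR, compounds added before an EC10-EC20 glutamate challenge to detect potentiation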
Format: cell-based
Details: geometric mean; read-out: mGluR 2 EC50 (geometric mean)

T1 sequence (Q14416 19-872, species assumed): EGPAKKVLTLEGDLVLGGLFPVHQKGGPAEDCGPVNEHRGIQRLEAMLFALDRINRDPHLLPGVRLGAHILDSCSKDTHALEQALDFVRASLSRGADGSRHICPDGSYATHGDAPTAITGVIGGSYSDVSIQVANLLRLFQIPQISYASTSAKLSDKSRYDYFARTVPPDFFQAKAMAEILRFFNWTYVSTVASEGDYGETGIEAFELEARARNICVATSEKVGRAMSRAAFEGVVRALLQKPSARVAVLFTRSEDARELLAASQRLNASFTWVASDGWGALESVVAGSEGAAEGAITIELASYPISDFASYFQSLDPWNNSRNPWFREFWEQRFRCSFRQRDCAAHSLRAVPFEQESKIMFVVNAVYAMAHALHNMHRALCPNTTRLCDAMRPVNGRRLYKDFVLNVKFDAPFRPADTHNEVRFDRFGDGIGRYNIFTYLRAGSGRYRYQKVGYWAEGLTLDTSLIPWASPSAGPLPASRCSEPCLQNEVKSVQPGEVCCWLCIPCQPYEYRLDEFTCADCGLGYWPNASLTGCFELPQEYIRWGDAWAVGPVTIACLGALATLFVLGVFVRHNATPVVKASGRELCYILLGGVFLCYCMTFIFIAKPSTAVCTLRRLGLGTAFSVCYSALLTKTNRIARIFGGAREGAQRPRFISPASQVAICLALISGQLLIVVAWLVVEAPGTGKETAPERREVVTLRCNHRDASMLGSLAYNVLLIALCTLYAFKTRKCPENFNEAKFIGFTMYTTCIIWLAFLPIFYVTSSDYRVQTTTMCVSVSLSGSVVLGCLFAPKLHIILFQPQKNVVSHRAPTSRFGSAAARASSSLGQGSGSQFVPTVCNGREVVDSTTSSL

Row | EC50 [µM] | Structure (SMILES)
1 | 0.761 | O=C1OC[C@@H]2CCCC[C@@H]2N1Cc1ccc(OCC2CCC2)cc1 [Example 1]
2 | 0.637 | CC(C)COc1ccc(CN2C(=O)OC[C@H]3CCCC[C@H]32)cc1 [Example 2]
3 | 0.361 | CCCOc1ccc(CN2CC(c3ccccc3)OC2=O)cc1 (stereo not drawn) [Example 3]
4 | 0.647 | O=C1OC[C@@H]2CCCC[C@@H]2N1Cc1ccc(OCc2ccccc2)cc1 [Example 4]
5 | 1.28 | O=C1OC(c2ccccc2)CN1Cc1ccc(OCc2ccccn2)cc1 (stereo not drawn) [Example 5]
6 | 0.151 | CC(C)COc1ccc(CN2CC(c3ccccc3)OC2=O)cc1 (stereo not drawn) [Example 6]
7 | 0.22 | O=C1OC(c2ccccc2)CN1Cc1ccc(OCC2CCCCC2)cc1 (stereo not drawn) [Example 7]
8 | 0.153 | O=C1OC(c2ccccc2)CN1Cc1ccc(OCc2ccccc2)cc1 (stereo not drawn) [Example 8]
9 | 0.135 | O=C1OC(c2ccccc2)CN1Cc1ccc(OCC2CCC2)cc1 (stereo not drawn) [Example 9]
10 | 0.395 | O=C1OC(c2ccccc2)CN1Cc1ccc(OCCC2CCCCC2)cc1 (stereo not drawn) [Example 10]
11 | 0.699 | O=C1OCCN1Cc1ccc(OCCC2CCCCC2)cc1 [Example 11]
12 | 0.218 | O=C1OC(c2ccccc2)CN1Cc1ccc(OCc2cccnc2)cc1 (stereo not drawn) [Example 13]
13 | 0.178 | CC1CN(Cc2ccc(OCC3CCC3)cc2)C(=O)O1 (stereo not drawn) [Example 14]
14 | 0.935 | CC1(C)COC(=O)N(Cc2ccc(OCC3CCC3)cc2)C1 [Example 15]
15 | 0.663 | CC(C)COc1ccc(CN2CC(C)(C)COC2=O)cc1 [Example 16]
16 | 0.696 | CC1(C)COC(=O)N(Cc2ccc(OCC3CCCCC3)cc2)C1 [Example 17]
17 | 0.979 | CC(C)COc1ccc(CN2CC(C)OC2=O)cc1 (stereo not drawn) [Example 20]
18 | 0.819 | CC1(C)COC(=O)N(Cc2ccc(OCc3ccccc3)cc2)C1 [Example 21]
19 | 0.887 | CCCOc1ccc(CN2C(=O)O[C@H](c3ccccc3)[C@@H]2C)cc1 [Example 23]
20 | 0.66 | C[C@H]1[C@@H](c2ccccc2)OC(=O)N1Cc1ccc(OCC2CCC2)cc1 [Example 24]
21 | 1.76 | C[C@H]1[C@@H](c2ccccc2)OC(=O)N1Cc1ccc(OCc2ccccn2)cc1 [Example 25]
22 | 0.542 | CC(C)COc1ccc(CN2C(=O)O[C@H](c3ccccc3)[C@@H]2C)cc1 [Example 26]
23 | 1.14 | C[C@H]1[C@@H](c2ccccc2)OC(=O)N1Cc1ccc(OCC2CCCCC2)cc1 [Example 27]

Row | EC50 [µM] | Structure (SMILES)
24 | 1.24 | O=C1OCCCN1Cc1ccc(OCC2CCC2)cc1 [Example 28]
25 | 0.467 | C[C@H]1[C@@H](c2ccccc2)OC(=O)N1Cc1ccc(OCc2ccccc2)cc1 [Example 29]
26 | 0.987 | C[C@H]1[C@@H](c2ccccc2)OC(=O)N1Cc1ccc(OCCC2CCCCC2)cc1 [Example 30]
27 | 1.25 | O=C1OCCCN1Cc1ccc(OCc2ccccc2)cc1 [Example 31]
28 | 0.245 | C[C@H]1[C@@H](c2ccccc2)OC(=O)N1Cc1ccc(OCc2cccnc2)cc1 [Example 32]
29 | 0.282 | O=C1OCCCN1Cc1ccc(OCCC2CCCCC2)cc1 [Example 34]
30 | 0.884 | CC(Oc1ccc(CN2C(=O)OC[C@@H]3CCCC[C@@H]32)cc1)c1ccccc1 (stereo partly drawn) [Example 35]
31 | 0.571 | O=C1OC(c2ccccc2)CN1Cc1ccc(OC2CCOCC2)cc1 (stereo not drawn) [Example 36]
32 | 2.02 | CC(Oc1ccc(CN2C(=O)OC[C@@H]3CCCC[C@@H]32)cc1)C1CCCCC1 (stereo partly drawn) [Example 37]
33 | 0.127 | CC(Oc1ccc(CN2CC(c3ccccc3)OC2=O)cc1)C1CCCCC1 (stereo not drawn) [Example 38]
34 | 0.244 | CC(Oc1ccc(CN2CC(c3ccccc3)OC2=O)cc1)c1ccccc1 (stereo not drawn) [Example 39]
35 | 0.155 | O=C1OC(c2ccccc2)CN1Cc1ccc(OC2CCCCC2)cc1 (stereo not drawn) [Example 40]
36 | 0.386 | O=C1OC[C@@H]2CCCC[C@@H]2N1Cc1ccc(OC2CCCCC2)cc1 [Example 41]
37 | 0.677 | CC(Oc1ccc(CN2CCOC2=O)cc1)C1CCCCC1 (stereo not drawn) [Example 42]
38 | 0.336 | CC1(C)COC(=O)N(Cc2ccc(OC3CCCCC3)cc2)C1 [Example 43]
39 | 0.572 | CC(C)Oc1ccc(CN2CC(c3ccccc3)OC2=O)cc1 (stereo not drawn) [Example 44]
40 | 0.213 | CC(Oc1ccc(CN2CC(C)(C)COC2=O)cc1)c1ccccc1 (stereo not drawn) [Example 45]
41 | 0.151 | CC1CN(Cc2ccc(OC(C)c3ccccc3)cc2)C(=O)O1 (stereo not drawn) [Example 46]
42 | 0.247 | CC(Oc1ccc(CN2CC(C)(C)COC2=O)cc1)C1CCCCC1 (stereo not drawn) [Example 47]
43 | 0.263 | CC(Oc1ccc(CN2C(=O)O[C@H](c3ccccc3)[C@@H]2C)cc1)c1ccccc1 (stereo partly drawn) [Example 50]
44 | 0.356 | C[C@H]1[C@@H](c2ccccc2)OC(=O)N1Cc1ccc(OC2CCCCC2)cc1 [Example 56]
45 | < 0.0408 | CC(C)Oc1ccc(-c2ccc(CN3C[C@@H](C)OC3=O)cc2)cc1 [Example 57, (5R)-3-[(4′-isopropoxybiphenyl-4-yl)methyl]-5-methyl-1,3-oxazolidin-2-one]
46 | 0.105 | CC(C)Oc1ccc(-c2ccc(CN3C[C@H](C)OC3=O)cc2)cc1 [Example 58, (5S)-3-[(4′-isopropoxybiphenyl-4-yl)methyl]-5-methyl-1,3-oxazolidin-2-one]

Row | EC50 [µM] | Structure (SMILES)
47 | 0.141 | C[C@H]1CN(Cc2ccc(-c3ccc(C(F)(F)F)cc3)cc2)C(=O)O1 [Example 63, (5S)-5-methyl-3-{[4′-(trifluoromethyl)biphenyl-4-yl]methyl}-1,3-oxazolidin-2-one]
48 | 0.061 | C[C@@H]1CN(Cc2ccc(-c3ccc(C(F)(F)F)cc3)cc2)C(=O)O1 [Example 64, (5R)-5-methyl-3-{[4′-(trifluoromethyl)biphenyl-4-yl]methyl}-1,3-oxazolidin-2-one]
49 | 0.24 | C[C@@H]1CN(Cc2ccc(O[C@H](C)c3ccccc3)cc2)C(=O)O1 [Example 67, (5R)-5-methyl-3-{4-[(1R)-1-phenylethoxy]benzyl}-1,3-oxazolidin-2-one]
50 | 0.299 | C[C@H]1CN(Cc2ccc(O[C@H](C)c3ccccc3)cc2)C(=O)O1 [Example 68]
51 | 0.173 | C[C@@H]1CN(Cc2ccc(O[C@@H](C)c3ccccc3)cc2)C(=O)O1 [Example 69]
52 | 0.209 | C[C@H](Oc1ccc(CN2C[C@H](C)OC2=O)cc1)c1ccccc1 [Example 70]
53 | 0.498 | C[C@@H]1CN(Cc2ccc(-c3cccc(C#N)c3)cc2)C(=O)O1 [Example 85]
54 | 1.38 | C[C@@H]1CN(Cc2ccc3c(c2)CCC(C)(C)O3)C(=O)O1 [Example 87, (5R)-3-[(2,2-Dimethyl-3,4-dihydro-2H-chromen-6-yl)methyl]-5-methyl-1,3-oxazolidin-2-one]
55 | 0.0666 | CC1CN(Cc2ccc(OCc3ccc(Cl)cc3F)cc2)C(=O)O1 (stereo not drawn) [Example 88]
56 | 0.0692 | CC1CN(Cc2ccc(OCc3ccc(Cl)cc3)cc2)C(=O)O1 (stereo not drawn) [Example 89]
57 | 0.0255 | CC1CN(Cc2ccc(OCC3CCCC3)cc2)C(=O)O1 (stereo not drawn) [Example 90]
58 | 0.152 | CC1CN(Cc2ccc(OCc3cc(F)cc(F)c3)cc2)C(=O)O1 (stereo not drawn) [Example 91]
59 | 0.0108 | CC1CN(Cc2ccc(OCCC3CCCC3)cc2)C(=O)O1 (stereo not drawn) [Example 92]
60 | 0.187 | CC1CN(Cc2ccc(OCCC3CC3)cc2)C(=O)O1 (stereo not drawn) [Example 93]
61 | 0.042 | CCC(C)CCOc1ccc(CN2CC(C)OC2=O)cc1 (stereo not drawn) [Example 94]
62 | 0.723 | CC1CN(Cc2ccc(OCC3(C)CC3)cc2)C(=O)O1 (stereo not drawn) [Example 95]
63 | < 0.0149 | CC1CN(Cc2ccc(OCCC(C)(C)C)cc2)C(=O)O1 (stereo not drawn) [Example 96]
64 | 0.823 | CC1CN(Cc2ccc(OCc3nc4ccccc4n3C(C)C)cc2)C(=O)O1 (stereo not drawn) [Example 97]
65 | 0.00707 | COc1ccc(CCCOc2ccc(CN3CC(C)OC3=O)cc2)cc1 (stereo not drawn) [Example 98]
66 | 0.115 | CC1CN(Cc2ccc(OCCc3cccc(Cl)c3)cc2)C(=O)O1 (stereo not drawn) [Example 99]
67 | 0.0559 | CC[C@H](C)COc1ccc(CN2CC(C)OC2=O)cc1 (stereo partly drawn) [Example 100]
68 | 0.188 | CC1CN(Cc2ccc(OCCc3cccc(F)c3)cc2)C(=O)O1 (stereo not drawn) [Example 101]
69 | 0.282 | CC1CN(Cc2ccc(OCCc3ccccc3)cc2)C(=O)O1 (stereo not drawn) [Example 102]

Row | EC50 [µM] | Structure (SMILES)
70 | 0.221 | COc1cccc(COc2ccc(CN3CC(C)OC3=O)cc2)c1 (stereo not drawn) [Example 103]
71 | 0.0379 | CC1CN(Cc2ccc(OCCCc3ccccc3)cc2)C(=O)O1 (stereo not drawn) [Example 104]
72 | 0.217 | COc1cccc(CCOc2ccc(CN3CC(C)OC3=O)cc2)c1 (stereo not drawn) [Example 105]
73 | 0.0737 | CC1CN(Cc2ccc(OCc3c(F)cccc3F)cc2)C(=O)O1 (stereo not drawn) [Example 106]
74 | 0.273 | Cc1oc(-c2ccccc2)nc1CCOc1ccc(CN2CC(C)OC2=O)cc1 (stereo not drawn) [Example 107]
75 | 0.0912 | CC1CN(Cc2ccc(OCc3cccc(Cl)c3)cc2)C(=O)O1 (stereo not drawn) [Example 108]
76 | 0.219 | CC1CN(Cc2ccc(OCCc3ccc(C#N)cc3)cc2)C(=O)O1 (stereo not drawn) [Example 109]
77 | 0.243 | CC1CN(Cc2ccc(OCc3ccc(F)cc3)cc2)C(=O)O1 (stereo not drawn) [Example 110]
78 | 0.0483 | CC1CN(Cc2ccc(OC[C@@H](C)c3ccccc3)cc2)C(=O)O1 (stereo partly drawn) [Example 111]
79 | 0.138 | CC1CN(Cc2ccc(OCc3ccccc3F)cc2)C(=O)O1 (stereo not drawn) [Example 112]
80 | 0.244 | COc1cc(COc2ccc(CN3CC(C)OC3=O)cc2)cc(OC)c1 (stereo not drawn) [Example 113]
81 | 0.0257 | CCOc1ccccc1COc1ccc(CN2CC(C)OC2=O)cc1 (stereo not drawn) [Example 114]
82 | 0.0718 | CC1CN(Cc2ccc(OCc3ccc(F)cc3Cl)cc2)C(=O)O1 (stereo not drawn) [Example 115]
83 | 0.934 | CC1CN(Cc2ccc(OCCCc3ccncc3)cc2)C(=O)O1 (stereo not drawn) [Example 116]
84 | 0.0345 | CC1CN(Cc2ccc(OCc3ccccc3Cl)cc2)C(=O)O1 (stereo not drawn) [Example 117]
85 | 0.0894 | COc1ccccc1COc1ccc(CN2CC(C)OC2=O)cc1 (stereo not drawn) [Example 118]
86 | 0.164 | CCOc1ccc(COc2ccc(CN3CC(C)OC3=O)cc2)cc1 (stereo not drawn) [Example 119]
87 | 1.15 | CC1CN(Cc2ccc(OCCCc3cccnc3)cc2)C(=O)O1 (stereo not drawn) [Example 120]
88 | 0.434 | CC1CN(Cc2ccc(OCCOc3ccccc3)cc2)C(=O)O1 (stereo not drawn) [Example 121]
89 | 0.0407 | CC1CN(Cc2ccc(OC(C)Cc3ccccc3)cc2)C(=O)O1 (stereo not drawn) [Example 122]
90 | 0.0226 | CC1CN(Cc2ccc(O[C@H]3C[C@H]4CC[C@@H]3C4)cc2)C(=O)O1 (stereo partly drawn) [Example 123]
